# From patent US12428406B2 (PMV Pharmaceuticals, Inc., priority 2019, dated 2025)
# Biological target: T1, p53 Y220C (Homo sapiens, UniProt P04637, Y220C)
# T1 construct: The recombinant protein was a truncation mutant containing only amino acids 94-312 of p53; made in house; host or cells: E. coli
# Assay: In vitro DNA binding activity assay (HTRF / TR-FRET): stabilization of p53 Y220C and increase of its DNA binding activity
# Assay type: biochemical
# Conditions: recombinant His-tagged p53 Y220C DNA binding domain (aa 94-312), biotin-labeled consensus DNA, incubated at 27° C. or 29° C. for 60 min
# Outline: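 Test compounds, diluted 3-fold in DMSO from 4.5 mM stocks, were incubated with bacterially expressed His-tagged p53 Y220C at room temperature for 15 min, and after a further step for 20 min. DNA binding was detected by time-resolved FRET between APC and europium labels. SC150 marks the concentration increasing binding by 50%.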
# T1 sequence (P04637 94-312, change not shown): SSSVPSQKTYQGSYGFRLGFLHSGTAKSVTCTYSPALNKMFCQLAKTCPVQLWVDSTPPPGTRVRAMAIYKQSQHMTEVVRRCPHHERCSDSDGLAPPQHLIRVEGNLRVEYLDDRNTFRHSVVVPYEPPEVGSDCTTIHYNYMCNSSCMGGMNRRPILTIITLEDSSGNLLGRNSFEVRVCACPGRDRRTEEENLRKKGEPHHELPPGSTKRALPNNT
row,SC150 (concentration of the compound required to increase the DNA binding activity by 50%),SMILES
1,+ (+ = 0 μM ≤ SC150 < 0.05 μM),"COCC(CN1CCC(Nc2cccc3c2cc(C#CCNc2ccc(S(C)(=O)=O)cc2OC)n3CC(F)(F)F)CC1)OC(=O)C(C)C (stereo not drawn) [Compound 603A, 1-{4-[(2-{3-[(4-methanesulfonyl-2-methoxyphenyl)amino]prop-1-yn-1-yl}-1-(2,2,2-trifluoroethyl)-1H-indol-4-yl)amino]piperidin-1-yl}-3-methoxypropan-2-yl 2-methylpropanoate]"
2,+ (+ = 0 μM ≤ SC150 < 0.05 μM),"COc1cc(S(=O)(=O)NC2CCOCC2)ccc1NCC#Cc1cc2c(NC3CCS(=O)(=O)CC3)cccc2n1CC(F)(F)F [Compound 1041A, 4-[(3-{4-[(1,1-dioxo-1λ^6-thian-4-yl)amino]-1-(2,2,2-trifluoroethyl)-1H-indol-2-yl}prop-2-yn-1-yl)amino]-3-methoxy-N-(oxan-4-yl)benzene-1-sulfonamide]"
3,+ (+ = 0 μM ≤ SC150 < 0.05 μM),"COc1cc(C(=O)N2CCC(N(C)C)CC2)ccc1NCC#Cc1cc2c(NC3CCN(C)CC3)cccc2n1CC(F)(F)F [Compound 499A, 2-[3-({4-[4-(dimethylamino)piperidine-1-carbonyl]-2-methoxyphenyl}amino)prop-1-yn-1-yl]-N-(1-methylpiperidin-4-yl)-1-(2,2,2-trifluoroethyl)-1H-indol-4-amine]"

# The remaining lines, values behind:
row,SMILES,SC150 (concentration of the compound required to increase the DNA binding activity by 50%)
1,"COc1cc(S(C)(=O)=O)ccc1NCC#Cc1cc2c(N(C)[C@H]3CCN(C)C[C@H]3F)cccc2n1CC(F)(F)F (racemic) [Compound 831A, rac-N-[(3R,4S)-3-fluoro-1-methylpiperidin-4-yl]-2-{3-[(4-methanesulfonyl-2-methoxyphenyl)amino]prop-1-yn-1-yl}-N-methyl-1-(2,2,2-trifluoroethyl)-1H-indol-4-amine]",+ (+ = 0 μM ≤ SC150 < 0.05 μM)
2,"COc1cc(S(C)(=O)=O)ccc1NCC#Cc1cc2c(N[C@H]3CC[C@H](N4CC5(CCCOC5)C4)CC3)cccc2n1CC(F)(F)F [Compound 322A, 2-{3-[(4-methane-sulfonyl-2-methoxy-phenyl)amino]prop-1-yn-1-yl}-N-[(1R,4R)-4-{6-oxa-2-azaspiro[3.5]nonan-2-yl}cyclohexyl]-1-(2,2,2-trifluoroethyl)-1H-indol-4-amine]",+ (+ = 0 μM ≤ SC150 < 0.05 μM)
3,CN(C)[C@H]1CC[C@H](Nc2cccc3c2cc(C#CCNc2ccc(S(C)(=O)=O)cc2OC(F)(F)F)n3CC(F)(F)F)CC1 [Compound 142A],+ (+ = 0 μM ≤ SC150 < 0.05 μM)
4,"COc1cc(S(C)(=O)=O)ccc1NCC#Cc1cc2c(NC3CC4CCC(C3)N4C)cccc2n1CC(F)(F)F (stereo not drawn) [Compound 990A, 2-{3-[(4-methanesulfonyl-2-methoxyphenyl)amino]prop-1-yn-1-yl}-N-{8-methyl-8-azabicyclo[3.2.1]octan-3-yl}-1-(2,2,2-trifluoroethyl)-1H-indol-4-amine]",+ (+ = 0 μM ≤ SC150 < 0.05 μM)
5,"COCCN1CCC(NC(=O)Nc2cccc3c2cc(C#CCNc2ccc(S(C)(=O)=O)cc2OC)n3CC(F)(F)F)CC1 [Compound 13A, 3-(2-{3-[(4-methanesulfonyl-2-methoxyphenyl)amino]prop-1-yn-1-yl}-1-(2,2,2-trifluoroethyl)-1H-indol-4-yl)-1-[1-(2-methoxyethyl)piperidin-4-yl]urea]",++++ (++++ = 0.2 μM ≤ SC150 < 1 μM)
6,"CNS(=O)(=O)c1ccc(NCC#Cc2cc3c(N[C@H]4CC[C@H](N(C)C)CC4)cccc3n2CC(F)(F)F)c(OC)c1 [Compound 71A, 3-methoxy-N-methyl-4-{[3-(4-{[(1R,4R)-4-(dimethylamino)cyclohexyl]amino}-1-(2,2,2-trifluoroethyl)-1H-indol-2-yl)prop-2-yn-1-yl]amino}benzene-1-sulfonamide]",+ (+ = 0 μM ≤ SC150 < 0.05 μM)
